ChEMBL document CHEMBL1201862, “PubChem BioAssay data set” (2004)
Activity calls are given as the source filed them.

Experiments:
[1] = viability loss in HeLa cells – cytotoxicity control for MgcRacGAP inhibitor project, dose response (AID 624300); type: functional
[2] = tested on: Vero; experiment: cells; type: functional; conditions: Chlorocebus sabaeus
[3] = miR-122Act:qPCR miR-122 Measured in Cell-Based System Using RT-PCR - 2144-04_Activator_Dose_CherryPick_Activity. (absACnn = the concentration at which the curve crosses threshold nn uM); type: functional
[4] = activation of miR-122 Renilla sensor silencing – cell-based, Huh7 psiCHECK-miR122, Renilla luciferase, cherry-picked, dose response (AID 651956); type: functional;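 note: huh7 hepatoma cells stably carrying a psiCHECK-2 miR-122 sensor plasmid; renilla luciferase signal reporting endogenous miR-122 activity after 48 h compound exposure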
[5] = cytotoxicity in HEK293 background cells – cell-based, dry powder, set 2, counter-screen for EBV LMP1 inhibitor project, dose response (AID 624374); type: functional
[6] = liver cell line viability loss – HepG2, luminescence plate reader, powder samples, set 2, cytotoxicity control, dose response (AID 651860); type: functional, cell-based
[7] = target: Metabotropic glutamate receptor 3 (Rattus norvegicus, UniProt P31422); experiment: inhibitors of rat mGlu3 Galpha15 signaling – TREx293 cells, calcium flux, mGlu3 NAM project, dose response (AID 651840); type: functional
Chain of Metabotropic glutamate receptor 3 (P31422 whole entry): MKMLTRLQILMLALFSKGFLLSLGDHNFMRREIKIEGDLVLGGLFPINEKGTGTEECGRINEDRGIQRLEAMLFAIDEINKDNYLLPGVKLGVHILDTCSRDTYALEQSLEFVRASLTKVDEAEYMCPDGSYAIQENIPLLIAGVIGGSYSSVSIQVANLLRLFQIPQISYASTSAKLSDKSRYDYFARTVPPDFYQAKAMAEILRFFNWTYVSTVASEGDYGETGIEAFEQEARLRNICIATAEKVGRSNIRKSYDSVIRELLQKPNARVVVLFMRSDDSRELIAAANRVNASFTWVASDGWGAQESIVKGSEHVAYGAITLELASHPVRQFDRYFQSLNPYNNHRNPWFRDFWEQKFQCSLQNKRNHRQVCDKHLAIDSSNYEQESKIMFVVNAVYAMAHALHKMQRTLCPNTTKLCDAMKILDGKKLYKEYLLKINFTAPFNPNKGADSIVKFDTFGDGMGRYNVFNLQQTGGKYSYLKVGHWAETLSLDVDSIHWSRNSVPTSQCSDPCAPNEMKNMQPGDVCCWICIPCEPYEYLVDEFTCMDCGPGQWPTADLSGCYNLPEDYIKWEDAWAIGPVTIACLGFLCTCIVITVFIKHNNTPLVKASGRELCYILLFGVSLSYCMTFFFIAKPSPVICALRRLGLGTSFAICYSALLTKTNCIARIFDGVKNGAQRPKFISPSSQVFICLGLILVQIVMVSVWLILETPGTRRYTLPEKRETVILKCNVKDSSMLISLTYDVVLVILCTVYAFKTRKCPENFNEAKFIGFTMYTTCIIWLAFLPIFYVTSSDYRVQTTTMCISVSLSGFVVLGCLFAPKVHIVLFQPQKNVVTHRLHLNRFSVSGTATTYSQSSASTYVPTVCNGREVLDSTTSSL

[8] = anti-trypanosomal activity in BESM host cells – imaging, CA-I/72 strain, bovine embryo skeletal muscle, dry powder, dose response (AID 651885); type: functional, cell-based
[9] = T. cruzi growth inhibition in host cells, dose response, cell-based, plate reader, dry powder, set 2 (AID 652275); type: functional
[10] = target: Potassium channel subfamily K member 3 (Homo sapiens, UniProt O14649); experiment: inhibition of human KCNK3 channel flux – CHO cells, FluxOR thallium flux, SAR follow-up (AID 652212); type: functional
Chain of Potassium channel subfamily K member 3 (O14649 whole entry): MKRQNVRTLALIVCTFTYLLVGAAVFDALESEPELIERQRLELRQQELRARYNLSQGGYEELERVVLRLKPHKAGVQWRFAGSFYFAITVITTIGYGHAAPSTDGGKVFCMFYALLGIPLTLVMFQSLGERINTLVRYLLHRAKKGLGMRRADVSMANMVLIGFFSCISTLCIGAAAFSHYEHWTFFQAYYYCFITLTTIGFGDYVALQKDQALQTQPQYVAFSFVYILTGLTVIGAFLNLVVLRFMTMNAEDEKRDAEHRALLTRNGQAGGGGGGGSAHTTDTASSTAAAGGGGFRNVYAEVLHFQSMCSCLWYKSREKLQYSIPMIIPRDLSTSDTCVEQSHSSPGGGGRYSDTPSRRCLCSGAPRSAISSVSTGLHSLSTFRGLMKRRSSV

[11] = target: Potassium channel subfamily K member 9 (Homo sapiens, UniProt Q9NPC2); experiment: KCNK9 flux blockade, concentration-response – cell-based, FluxOR thallium flux, selectivity assay for TASK1 inhibitor project, SAR follow-up (AID 652211); type: functional;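 note: potency is for inhibitors of the channel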
Chain of Potassium channel subfamily K member 9 (Q9NPC2 whole entry): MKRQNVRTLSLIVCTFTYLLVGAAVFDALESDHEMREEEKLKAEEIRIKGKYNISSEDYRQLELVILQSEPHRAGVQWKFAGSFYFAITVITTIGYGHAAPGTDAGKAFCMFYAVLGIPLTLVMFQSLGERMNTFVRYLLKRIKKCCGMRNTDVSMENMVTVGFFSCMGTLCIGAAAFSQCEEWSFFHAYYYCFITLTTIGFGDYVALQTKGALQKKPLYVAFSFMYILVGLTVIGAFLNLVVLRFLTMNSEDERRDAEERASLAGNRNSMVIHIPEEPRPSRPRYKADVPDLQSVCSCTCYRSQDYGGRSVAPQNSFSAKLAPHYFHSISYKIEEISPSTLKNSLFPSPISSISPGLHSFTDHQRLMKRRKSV

[12] = inhibitors of non-replicating M. tuberculosis, dose response, luciferase, dry powder (AID 651619); type: functional; conditions: Mycobacterium tuberculosis
[13] = inhibitors of non-replicating M. tuberculosis, dose response, luciferase, dry powder (AID 651620); type: functional; conditions: Mycobacterium tuberculosis
[14] = target: Protein Wnt-3a (Mus musculus, UniProt P27467); experiment: SAR analysis of small molecule antagonists of Gli-SUFU in a Wnt3a luminescent reporter assay.; type: functional
Chain of Protein Wnt-3a (P27467 whole entry): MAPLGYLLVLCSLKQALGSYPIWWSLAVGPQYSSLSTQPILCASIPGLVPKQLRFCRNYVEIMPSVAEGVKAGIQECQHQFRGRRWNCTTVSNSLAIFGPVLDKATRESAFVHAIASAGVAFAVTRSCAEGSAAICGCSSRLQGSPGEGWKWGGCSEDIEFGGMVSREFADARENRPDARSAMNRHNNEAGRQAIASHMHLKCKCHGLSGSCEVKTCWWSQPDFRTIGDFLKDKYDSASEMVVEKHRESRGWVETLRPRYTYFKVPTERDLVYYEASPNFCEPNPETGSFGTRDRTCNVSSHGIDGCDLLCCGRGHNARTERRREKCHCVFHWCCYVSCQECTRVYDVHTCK

[15] = reduced cellular PGC1a acetyl-lysine signal – cell-based, cherry-picked samples, dose response (AID 720514); type: functional;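 note: potency may reflect raised or lowered acetylation signal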
[16] = cells; conditions: A549
[17] = viability loss in THP-1 monocytes – THP-1 cells, cytotoxicity control for Vif-APOBEC3G degradation inhibitor project, dose response (AID 1117359); type: functional; conditions: THP-1
[18] = target: Induced myeloid leukemia cell differentiation protein Mcl-1 (Homo sapiens, UniProt Q07820); type: functional
Chain of Induced myeloid leukemia cell differentiation protein Mcl-1 (Q07820 whole entry): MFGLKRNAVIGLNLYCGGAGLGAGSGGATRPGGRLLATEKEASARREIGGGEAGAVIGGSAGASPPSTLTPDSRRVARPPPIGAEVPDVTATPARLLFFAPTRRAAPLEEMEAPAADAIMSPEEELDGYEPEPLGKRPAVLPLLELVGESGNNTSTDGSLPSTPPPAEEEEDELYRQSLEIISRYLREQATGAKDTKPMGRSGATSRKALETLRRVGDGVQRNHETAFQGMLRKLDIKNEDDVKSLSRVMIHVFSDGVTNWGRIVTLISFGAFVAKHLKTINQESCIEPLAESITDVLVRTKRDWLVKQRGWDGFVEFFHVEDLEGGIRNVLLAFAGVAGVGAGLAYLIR

Structure (SMILES): O=[N+]([O-])/C=C/c1cc2ccccc2[nH]1
- CC50 [1]: 94.6 µM (active)
- CC50 [2]: > 25 µM (active)

Structure (SMILES): Cc1cccc(NC(=O)Nc2ccc3c(c2)C(=O)N(C)[C@@H]2CC[C@H](CC(=O)NCc4ccccc4Cl)O[C@H]2CO3)c1
- AbsAC40_uM [3]: 8.38 µM
- AC50 [4]: 9.59 µM (active)

Structure (SMILES): C[C@@H]1CN([C@@H](C)CO)C(=O)Cc2cc(NC(=O)Cc3ccccc3)ccc2O[C@@H]1CN(C)Cc1ccc(C(F)(F)F)cc1
- AbsAC35 [5]: 279.95 µM

Structure (SMILES): O=C(O)[C@@H]1CCCC[C@@H]1C(=O)N1CCc2ccccc2[C@@H]1CN1C(=O)c2ccccc2C1=O
- AC50 [6]: > 52 µM (inactive)

Structure (SMILES): COc1ccc(C#Cc2ccc(C(=O)NC(C)CO)cc2)cc1 (stereo not drawn)
- IC50 [7]: 4.73 µM

Structure (SMILES): C[C@H]1CN([C@@H](C)CO)C(=O)c2cccc(NC(=O)c3ccncc3)c2O[C@@H]1CN(C)Cc1ccncc1
- IC50 [8]: > 20 µM (inactive)

Structure (SMILES): C[C@H]1CN([C@@H](C)CO)C(=O)c2cccc(NC(=O)c3ccncc3)c2O[C@@H]1CN(C)Cc1cccc(Cl)c1Cl
- AC50 [9]: 0.0255 µM (active)

Structure (SMILES): CCOc1ccccc1NC(=O)c1cccc(NC(=O)C2CC2)c1
- IC50 [10]: 1.07 µM (active)
- IC50 [11]: 10.2 µM (active)

Structure (SMILES): c1ccc(CSc2nnc(-c3ccncc3)o2)nc1
- IC90 [12]: 16 µM (active)
- IC90 [13]: 16 µM (active)

Structure (SMILES): CC(C)(C)OC(=O)N1CCN(c2cc(NC(=O)c3ccccc3)ncn2)CC1
- IC50 [14]: > 21.8 µM (inactive)

Structure (SMILES): Cc1cccn2c(=O)c3cc(C(=O)NCc4ccco4)c(=N)n(CCc4ccccc4)c3nc12
- AC50 [15]: 28.4 µM (active)
- AC50 [16]: 39.9 µM (active)
- CC50 [17]: 38.1 µM (active)
- IC50 [18]: 3.57 µM (active)
